pIC50: −log10 of the molar value.

In general, pIC50 refers to the IC50 on a negative log10 scale, so that one unit is a factor of ten.

Type in all cases: functional, cell-based
What all share (conditions): Homo sapiens

In one assay the test system is SF-295. Description: In vitro cytotoxic activity against SF-295 (CNS carcinoma) cell lines by using SRB assay. (In general: Sulforhodamine B stains cellular protein and so reports cell mass.)
A further assay deals with SK-OV-3. Description: In vitro cytotoxic activity against SK-OV-3 (ovarian carcinoma) cell lines by using SRB assay.
Another assay concerns HOP-62. Description: In vitro cytotoxic activity against HOP62 (lung cancer) cell lines by using SRB assay.
For a further assay, the system named is HCT-15. Description: In vitro cytotoxic activity against HCT15 (colon cancer) cell lines by using SRB assay.

For `O=C1c2cccnc2C(=O)c2ncc(CBr)cc21`, the pIC50 in the assay with SF-295 was 6.30; in the assay with SK-OV-3 it was 6.52; in the assay on HOP-62, 7.26; with HCT-15, 6.40.
The corresponding values for `Cc1cnc2c(c1)C(=O)c1cccnc1C2=O` are 6.60, 7.40, 7.82 and 6.46.
For the compound `O=C1c2cccnc2C(=O)c2ncc(CO)cc21`, the pIC50 was 6.52 in the assay on SF-295, 6.70 with SK-OV-3, 7.00 in the assay with HOP-62 and 6.40 with HCT-15.
`CC(C)NC(=O)OCc1cnc2c(c1)C(=O)c1cccnc1C2=O`: the pIC50 was 7.00 in the assay on SF-295, 7.70 in the assay on SK-OV-3, 8.22 with HOP-62 and 7.70 with HCT-15.
`COc1cccc2c1C(=O)c1c(O)c3c(c(O)c1C2=O)C[C@@](O)(C(=O)CO)C[C@@H]3O[C@H]1C[C@H](N)[C@H](O)[C@H](C)O1` [DOXORUBICIN]: the pIC50 with SF-295 was 7.46; in the assay on SK-OV-3, 7.70; in the assay on HOP-62, 8.40; in the assay on HCT-15, 7.00.

Source of the values: ChEMBL document CHEMBL1130647, “Synthesis and in vitro cytotoxicity of 3-substituted-1,8-diazaanthraquinones produced by Lewis-acid catalyzed hetero Diels-Alder reaction” (Bioorg Med Chem Lett, 1998).
